# From patent US11274129B2, “Methods for protein tyrosine phosphorylation profiling with variant SH2 domains” (priority 2016, dated 2022)
# Legend:
# Designed peptide GGpYGG = settings: read-out: equilibrium dissociation constant (Kd); cited from earlier work
# [1] = molecular target: MidT-pTyr^324 peptide EPQpYEEIPIYL; settings: peptide MidT-pTyr^324 EPQpYEEIPIYL; read-out: equilibrium dissociation constant (Kd); cited from earlier work
# [2] = molecular target: RSKL-pTyr^423 peptide YQHpYDLDLKD; settings: peptide RSKL-pTyr^423 YQHpYDLDLKD; read-out: equilibrium dissociation constant (Kd); cited from earlier work
# [3] = molecular target: VEGFR1-pTyr^1213 peptide DVRpYVNAAKF; settings: peptide VEGFR1-pTyr^1213 DVRpYVNAAKF; read-out: equilibrium dissociation constant (Kd); cited from earlier work
# [4] = molecular target: ShcA-pTyr^239 peptide DHQpYYNDFPG; settings: peptide ShcA-pTyr^239 DHQpYYNDFPG; read-out: equilibrium dissociation constant (Kd); cited from earlier work
# [5] = molecular target: EGFR-pTyr^978 peptide PQRpYLVIQGD; settings: peptide EGFR-pTyr^978 PQRpYLVIQGD; read-out: equilibrium dissociation constant (Kd); cited from earlier work
# [6] = molecular target: EGFR-pTyr^1110 peptide NPVpYHNQPLN; settings: peptide EGFR-pTyr^1110 NPVpYHNQPLN; read-out: equilibrium dissociation constant (Kd); cited from earlier work
# [7] = test system: mixture of 54 different pTyr-including peptides derived from 54 TK activation loops; experiment: Capture of pTyr-including peptides from a mixture of TK activation loop peptides, scheduled PRM; format: binding
# Protocol: Equal molar amounts (10 nmole) of the wild-type (wt) human Src SH2 domain and the DM and TrM human Src SH2 Superbinders (SEQ ID NO: 14 and 5, respectively) expressed with His6 and GST tags were used to capture pTyr-including peptides from a mixture of 54 different pTyr-including peptides (10 pmole each) derived from 54 TK activation loops. The isolated peptides were identified by PRM and quantified based on the corresponding MS peak area. 1.8% of the eluted peptides were injected into a Q-Exactive (Thermo Fisher) preceded with a nano-LC system.
# Shown are the amounts of pTyr-including peptides captured, based on the corresponding peak area of PRM signal, by each of the parent human Src SH2 domain and the DM and TrM human Src SH2 Superbinders.
# [8] = molecular target: ShcA-pTyr^317 peptide DPSpYVNVQNL; settings: peptide ShcA-pTyr^317 DPSpYVNVQNL; read-out: equilibrium dissociation constant (Kd); cited from earlier work
substance,measurement,setting,value
"Wild type: wild-type (parent) human Src SH2 domain; SEQ ID NO: 4, His6/GST-tagged form SEQ ID NO: 10 [reference compound]",Kd,Designed peptide GGpYGG,> 30 µM
same,Kd,[1],0.13 µM
same,Kd,[2],3.9 µM
same,Kd,[3],6.5 µM
same,Kd,[4],0.7 µM
same,Kd,[5],3.7 µM
same,Kd,[6],6.9 µM
same,number of the 54 pTyr-including peptides captured / detected by PRM,"[7]; 10 nmole SH2 domain, 10 pmole each peptide",22
same,PRM signal peak area,"[7]; BLK (pTyr389) IIDSEpYTAQEGAK, fragment ion b2",0
same,PRM signal peak area,"[7]; BMX (pTyr566) YVLDDQpYVSSVGTK, fragment ion b2",0
same,PRM signal peak area,"[7]; BTK (pTyr551) YVLDDEpYTSSVGSK, fragment ion b2","4,214"
same,PRM signal peak area,"[7]; DDR1 (pTyr796/797) NLYAGDpYpYR, fragment ion b2","47,729"
same,PRM signal peak area,"[7]; DDR2 (pTyr740/741) NLYSGDpYpYR, fragment ion y6","15,251"
same,PRM signal peak area,"[7]; EPHA1 (pTyr781) LLDDFDGTpYETQGGK, fragment ion y9",0
same,PRM signal peak area,"[7]; EPHA2 (pTyr772) VLEDDPEATpYTTSGGK, fragment ion y11",0
same,PRM signal peak area,"[7]; EPHA3 (pTyr779) VLEDDPEAApYTTR, fragment ion y8",0
same,PRM signal peak area,"[7]; EPHA6 (pTyr830) VLEDDPEAApYTTTGGK, fragment ion b2","2,742"
same,PRM signal peak area,"[7]; EPHA8 (pTyr793) VLEDDPDAApYTTTGGK, fragment ion y11",0
same,PRM signal peak area,"[7]; EPHB1 (pTyr778) YLQDDTSDPTpYTSSLGGK, fragment ion y10",0
same,PRM signal peak area,"[7]; EPHB2 (pTyr780) FLEDDTSDPTpYTSALGGK, fragment ion Y3","10,833"
same,PRM signal peak area,"[7]; EPHB3 (pTyr792) FLEDDPSDPTpYTSSLGGK, fragment ion y10",0
same,PRM signal peak area,"[7]; EPHB4 (pTyr774) FLEENSSDPTpYTSSLGGK, fragment ion y10",0
same,PRM signal peak area,"[7]; ERBB2 (pTyr877) LLDIDETEpYHADGGK, fragment ion b3",0
same,PRM signal peak area,"[7]; ERBB3 (pTyr866) QLLpYSEAK, fragment ion y2","41,881"
same,PRM signal peak area,"[7]; FER (pTyr714) QEDGGVpYSSSGLK, fragment ion y7",0
same,PRM signal peak area,"[7]; FES (pTyr713) EEADGVpYAASGGLR, fragment ion y8",0
same,PRM signal peak area,"[7]; FGFR1 (pTyr653/654) DIHHIDpYpYK, fragment ion b6","28,495"
same,PRM signal peak area,"[7]; FGFR2 (pTyr656/657) DINNIDpYpYK, fragment ion y4","51,625"
same,PRM signal peak area,"[7]; FGFR3 (pTyr647/648) DVHNLDpYpYK, fragment ion b3","103,678"
same,PRM signal peak area,"[7]; FGFR4 (pTyr642/643) GVHHIDpYpYK, fragment ion b3","29,764"
same,PRM signal peak area,"[7]; FRK (pTyr387) VDNEDIpYESR, fragment ion y6",0
same,PRM signal peak area,"[7]; GSK3 (pTyr279/216) GEPNVSpYICSR, fragment ion y6",0
same,PRM signal peak area,"[7]; HCK (pTyr411) VIEDNEpYTAR, fragment ion b2",0
same,PRM signal peak area,"[7]; INSRR (pTyr1145/1146) DVYETDpYpYR, fragment ion y5",0
same,PRM signal peak area,"[7]; ITK (pTyr512) FVLDDQpYTSSTGTK, fragment ion y11",0
same,PRM signal peak area,"[7]; JAK1 (pTyr1034/1035) EpYpYTVK, fragment ion y2","58,254"
same,PRM signal peak area,"[7]; JAK2 (pTyr221) IQDpYHILTR, fragment ion Y3",0
same,PRM signal peak area,"[7]; JAK3 (pTyr980/981) DpYpYVVR, fragment ion y2","23,291"
same,PRM signal peak area,"[7]; KIT (pTyr823) NDSNpYVVK, fragment ion b2",0
same,PRM signal peak area,"[7]; LMTK2 (pTyr295) EDpYIETDDK, fragment ion b2",0
same,PRM signal peak area,"[7]; LMTK3 (pTyr296/297) EDpYpYLTPER, fragment ion y3","29,887"
same,PRM signal peak area,"[7]; MERTK (pTyr753/754) IYSGDpYpYR, fragment ion b2",0
same,PRM signal peak area,"[7]; MET (pTyr1234/1235) EpYpYSVHNK, fragment ion y2","26,824"
same,PRM signal peak area,"[7]; MUSK (pTyr755/756) NIYSADpYpYK, fragment ion y2","47,647"
same,PRM signal peak area,"[7]; NTRK1 (pTyr680/681) DIYSTDpYpYR, fragment ion b2","21,736"
same,PRM signal peak area,"[7]; NTRK2 (pTyr706/707) DVYSTDpYpYR, fragment ion y4","39,632"
same,PRM signal peak area,"[7]; PGFRB (pTyr857) DSNpYISK, fragment ion y2",0
same,PRM signal peak area,"[7]; PTK7 (pTyr960/961) DVYNSEpYpYHFR, fragment ion b2",0
same,PRM signal peak area,"[7]; RET (pTyr905) DVYEEDSpYVK, fragment ion b2",0
same,PRM signal peak area,"[7]; RON (pTyr1238/1239) EpYpYSVQQHR, fragment ion y4","5,434"
same,PRM signal peak area,"[7]; ROR1 (pTyr645/646) EIYSADpYpYR, fragment ion y6","32,356"
same,PRM signal peak area,"[7]; ROR2 (pTyr645/646) EVYAADpYpYK, fragment ion y5","85,894"
same,PRM signal peak area,"[7]; SRC (pTyr419) LIEDNEpYTAR, fragment ion b2",0
same,PRM signal peak area,"[7]; SRMS (pTyr380) DDIpYSPSSSSK, fragment ion y8",0
same,PRM signal peak area,"[7]; TEC (pTyr519) YVLDDQpYTSSSGAK, fragment ion b2",0
same,PRM signal peak area,"[7]; TIE1 (pTyr1007) GEEVpYVK, fragment ion b2",0
same,PRM signal peak area,"[7]; TIE2 (pTyr992) GQEVpYVK, fragment ion b2",0
same,PRM signal peak area,"[7]; TXK (pTyr420) YVLDDEpYVSSFGAK, fragment ion b2","1,519"
same,PRM signal peak area,"[7]; TYK2 (pTyr1054/1055) AVPEGHEpYpYR, fragment ion y6","11,551"
same,PRM signal peak area,"[7]; VGFR1 (pTyr1053) NPDpYVR, fragment ion y3",0
same,PRM signal peak area,"[7]; VGFR2 (pTyr1059) DPDpYVR, fragment ion Y3",0
same,Kd,[8],2.2 µM
